Results on 15 compounds are retold here after the supplement of paper PMC10627819.

Assay in all cases: Bliss interaction score (quartile over a dose matrix) (fitness difference); higher = more antagonism (negative = synergy)
In one assay the test system is S. aureus Newman. The essentials: (§1)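 OD595 was read at entry into stationary phase and expressed relative to the robust mean of the no-drug wells on the same plate, capped at 1. The resulting ratio is the fitness value. The Bliss score, observed fitness minus product-based expected fitness with single-drug fitness inferred from combinations, is summarised by quartiles over technical, biological and donor/recipient replicates.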

A further assay concerns S. pneumoniae D39V. The essentials:
as §1

The next assay has as its system B. subtilis 168. The essentials:
as §1

The subject of a further assay is S. aureus DSM 20231. The procedure, abridged: as §1
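Note: first quartile when negative (synergy) and third quartile when positive (antagonism).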

With `Cc1onc(-c2ccccc2)c1C(=O)N[C@@H]1C(=O)N2[C@@H]1SC(C)(C)[C@@H]2C(=O)O` [Oxacillin] + Oc1cc(Cl)ccc1Oc1ccc(Cl)cc1Cl [Triclosan], the Bliss interaction score with S. aureus Newman is 0.0273; in the assay with S. pneumoniae D39V it was 0.0852; in the assay on B. subtilis 168, 0.025; in the assay with S. aureus DSM 20231, 0.0454.
For `C[n+]1ccc(-c2cc[n+](C)cc2)cc1` [Paraquat] + C/C(=C\C(=O)OCCCCCCCCC(=O)O)C[C@@H]1OC[C@H](C[C@@H]2O[C@H]2[C@@H](C)[C@H](C)O)[C@@H](O)[C@H]1O [Pseudomonic acid] the same measures were 0.0152, -0.0863, 0.0715 and 0.0093.
For the compound `C[n+]1ccc(-c2cc[n+](C)cc2)cc1` [Paraquat] + CC1(C)S[C@@H]2[C@H](NC(=O)Cc3ccccc3)C(=O)N2[C@H]1C(=O)O [PenicillinG], the Bliss interaction score in the assay with S. aureus Newman is 0.0437; in the assay on S. pneumoniae D39V, -0.0591; in the assay on B. subtilis 168, -0.0267; in the assay on S. aureus DSM 20231 it was -0.0239.
For `C[n+]1ccc(-c2cc[n+](C)cc2)cc1` [Paraquat] + CC[C@H]1OC(=O)[C@H](C)C(=O)[C@H](C)[C@@H](O[C@@H]2O[C@H](C)C[C@H](N(C)C)[C@H]2O)[C@](C)(OC)C[C@@H](C)C(=O)[C@H](C)[C@H]2N(CCCCn3cnc(-c4cccnc4)c3)C(=O)O[C@]12C [Telithromycin], the Bliss interaction score with S. aureus Newman is -0.0252; with S. pneumoniae D39V, 0.0949; in the assay on B. subtilis 168, -0.0235; in the assay with S. aureus DSM 20231 it was 0.0414.
For `C[n+]1ccc(-c2cc[n+](C)cc2)cc1` [Paraquat] + Oc1cc(Cl)ccc1Oc1ccc(Cl)cc1Cl [Triclosan] the same measures were -0.0576, 0.058, -0.188 and 0.0434.
On to `Cn1c2cccc(=O)c-2nc2ccccc21` [Pyocyanin] + CC[C@H]1OC(=O)[C@H](C)C(=O)[C@H](C)[C@@H](O[C@@H]2O[C@H](C)C[C@H](N(C)C)[C@H]2O)[C@](C)(OC)C[C@@H](C)C(=O)[C@H](C)[C@H]2N(CCCCn3cnc(-c4cccnc4)c3)C(=O)O[C@]12C [Telithromycin], for which the Bliss interaction score in the assay on S. aureus Newman is -0.0591; in the assay with S. pneumoniae D39V it was -0.0564; in the assay with B. subtilis 168 it was -0.0145; in the assay on S. aureus DSM 20231 it was 0.0313.
For `Cn1c2cccc(=O)c-2nc2ccccc21` [Pyocyanin] + Oc1cc(Cl)ccc1Oc1ccc(Cl)cc1Cl [Triclosan] the same measures were 0.0494, -0.0544, -0.0279 and 0.037.
The matching figures for `CN(N=O)C(=O)N[C@@H](C=O)[C@@H](O)[C@H](O)[C@H](O)CO` [Streptozotocin] + CC[C@H]1OC(=O)[C@H](C)C(=O)[C@H](C)[C@@H](O[C@@H]2O[C@H](C)C[C@H](N(C)C)[C@H]2O)[C@](C)(OC)C[C@@H](C)C(=O)[C@H](C)[C@H]2N(CCCCn3cnc(-c4cccnc4)c3)C(=O)O[C@]12C [Telithromycin]: -0.0223, 0.0699, 0.0498 and 0.0346.
For the compound `CN(N=O)C(=O)N[C@@H](C=O)[C@@H](O)[C@H](O)[C@H](O)CO` [Streptozotocin] + Cc1cc(NS(=O)(=O)c2ccc(N)cc2)no1 [Sulfamethoxazol], the Bliss interaction score was 0.0639 in the assay on S. aureus Newman, -0.0217 in the assay on S. pneumoniae D39V, -0.0496 in the assay with B. subtilis 168 and -0.0487 in the assay on S. aureus DSM 20231.
For `CN(N=O)C(=O)N[C@@H](C=O)[C@@H](O)[C@H](O)[C@H](O)CO` [Streptozotocin] + Oc1cc(Cl)ccc1Oc1ccc(Cl)cc1Cl [Triclosan] the same measures were -0.0226, -0.0506, 0.095 and 0.0542.
`Cc1cc(NS(=O)(=O)c2ccc(N)cc2)no1` [Sulfamethoxazol] + CC[C@H]1OC(=O)[C@H](C)C(=O)[C@H](C)[C@@H](O[C@@H]2O[C@H](C)C[C@H](N(C)C)[C@H]2O)[C@](C)(OC)C[C@@H](C)C(=O)[C@H](C)[C@H]2N(CCCCn3cnc(-c4cccnc4)c3)C(=O)O[C@]12C [Telithromycin]: the Bliss interaction score with S. aureus Newman is 0.0359; with S. pneumoniae D39V, -0.0611; in the assay on B. subtilis 168, -0.0301; with S. aureus DSM 20231, 0.034.
The matching figures for `Cc1cc(NS(=O)(=O)c2ccc(N)cc2)no1` [Sulfamethoxazol] + Oc1cc(Cl)ccc1Oc1ccc(Cl)cc1Cl [Triclosan]: 0.0302, -0.0608, 0.0965 and 0.0924.
The matching figures for `CC[C@H]1OC(=O)[C@H](C)C(=O)[C@H](C)[C@@H](O[C@@H]2O[C@H](C)C[C@H](N(C)C)[C@H]2O)[C@](C)(OC)C[C@@H](C)C(=O)[C@H](C)[C@H]2N(CCCCn3cnc(-c4cccnc4)c3)C(=O)O[C@]12C` [Telithromycin] + CC1=C\[C@@H](O)CC(=O)Cc2nc(co2)C(=O)N2CCC=C2C(=O)O[C@H](C(C)C)[C@H](C)/C=C/C(=O)NC\C=C\1 [Virginiamycin M1]: -0.0314, -0.037, -0.0239 and -0.0529.
The matching figures for `CC[C@H]1OC(=O)[C@H](C)C(=O)[C@H](C)[C@@H](O[C@@H]2O[C@H](C)C[C@H](N(C)C)[C@H]2O)[C@](C)(OC)C[C@@H](C)C(=O)[C@H](C)[C@H]2N(CCCCn3cnc(-c4cccnc4)c3)C(=O)O[C@]12C` [Telithromycin] + CN(C)c1cc(NC(=O)CNC(C)(C)C)c(O)c2c1C[C@H]1C[C@H]3[C@H](N(C)C)C(O)=C(C(N)=O)C(=O)[C@@]3(O)C(O)=C1C2=O [Tigecycline]: 0.0378, -0.107, 0.0616 and -0.0261.
Consider `CC[C@H]1OC(=O)[C@H](C)C(=O)[C@H](C)[C@@H](O[C@@H]2O[C@H](C)C[C@H](N(C)C)[C@H]2O)[C@](C)(OC)C[C@@H](C)C(=O)[C@H](C)[C@H]2N(CCCCn3cnc(-c4cccnc4)c3)C(=O)O[C@]12C` [Telithromycin] + CN[C@H](CC(C)C)C(=O)N[C@H]1C(=O)N[C@@H](CC(N)=O)C(=O)N[C@H]2C(=O)N[C@H]3C(=O)N[C@H](C(=O)N[C@H](C(=O)O)c4cc(O)cc(O)c4-c4cc3ccc4O)[C@H](O)c3ccc(c(Cl)c3)Oc3cc2cc(c3O[C@@H]2O[C@H](CO)[C@@H](O)[C@H](O)[C@H]2O[C@H]2C[C@](C)(N)[C@H](O)[C@H](C)O2)Oc2ccc(cc2Cl)[C@H]1O [Vancomycin], for which the Bliss interaction score with S. aureus Newman is 0.0259; in the assay on S. pneumoniae D39V, 0.0519; in the assay with B. subtilis 168 it was 0.0487; with S. aureus DSM 20231 it was -0.0478.
